# Laboratory results reported in BindingDB's records for doi:10.7270/Q2CZ35ZF (Southern Research Institute, 2016).
# Biological target: Cystic fibrosis transmembrane conductance regulator (Homo sapiens, UniProt P13569)
# Sequence (P13569 whole entry): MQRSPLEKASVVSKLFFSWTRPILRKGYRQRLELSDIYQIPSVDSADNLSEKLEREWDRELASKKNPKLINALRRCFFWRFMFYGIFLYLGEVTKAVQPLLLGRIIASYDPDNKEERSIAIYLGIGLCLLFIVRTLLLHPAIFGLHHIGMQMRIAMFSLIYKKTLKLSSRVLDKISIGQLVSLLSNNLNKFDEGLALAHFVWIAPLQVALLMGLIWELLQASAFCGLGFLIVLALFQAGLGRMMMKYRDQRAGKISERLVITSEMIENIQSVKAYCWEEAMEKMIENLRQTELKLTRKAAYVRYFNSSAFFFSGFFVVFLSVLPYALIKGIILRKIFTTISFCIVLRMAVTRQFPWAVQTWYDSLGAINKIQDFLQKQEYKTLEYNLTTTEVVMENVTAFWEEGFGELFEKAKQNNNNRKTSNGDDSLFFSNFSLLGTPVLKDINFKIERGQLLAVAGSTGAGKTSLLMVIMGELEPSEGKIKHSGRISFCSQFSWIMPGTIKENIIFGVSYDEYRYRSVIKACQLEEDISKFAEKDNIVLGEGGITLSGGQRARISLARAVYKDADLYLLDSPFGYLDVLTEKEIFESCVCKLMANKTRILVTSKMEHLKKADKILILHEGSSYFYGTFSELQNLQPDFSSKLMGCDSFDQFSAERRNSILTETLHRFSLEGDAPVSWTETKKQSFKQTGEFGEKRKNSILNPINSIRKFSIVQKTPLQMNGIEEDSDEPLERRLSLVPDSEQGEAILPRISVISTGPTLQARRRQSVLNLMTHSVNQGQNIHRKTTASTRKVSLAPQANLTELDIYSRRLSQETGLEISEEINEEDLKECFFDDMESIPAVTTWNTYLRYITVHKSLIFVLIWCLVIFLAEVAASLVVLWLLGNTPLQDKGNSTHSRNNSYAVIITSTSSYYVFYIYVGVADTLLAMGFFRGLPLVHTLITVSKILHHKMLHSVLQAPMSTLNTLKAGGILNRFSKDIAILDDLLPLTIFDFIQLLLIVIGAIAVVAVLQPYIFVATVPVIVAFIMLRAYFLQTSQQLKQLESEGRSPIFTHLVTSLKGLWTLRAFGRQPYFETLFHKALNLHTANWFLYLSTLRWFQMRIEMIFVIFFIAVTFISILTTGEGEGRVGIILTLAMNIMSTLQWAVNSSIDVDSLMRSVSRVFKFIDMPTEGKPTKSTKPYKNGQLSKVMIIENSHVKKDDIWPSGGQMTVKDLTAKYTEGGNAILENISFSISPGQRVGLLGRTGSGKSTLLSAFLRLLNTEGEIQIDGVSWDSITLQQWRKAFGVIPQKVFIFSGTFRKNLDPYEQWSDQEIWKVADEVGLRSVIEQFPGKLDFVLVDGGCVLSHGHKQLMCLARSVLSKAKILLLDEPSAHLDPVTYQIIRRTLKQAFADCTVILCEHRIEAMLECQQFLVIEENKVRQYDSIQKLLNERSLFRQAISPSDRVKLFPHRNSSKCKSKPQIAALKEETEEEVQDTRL
EC50,IC50,Compound
> 50 µM,> 25 µM,"CN(C/C=C/C#CC(C)(C)C)Cc1cccc2ccccc12 [(6,6-Dimethyl-hept-2-en-4-ynyl)-methyl-naphthalen-1-ylmethyl-amine(Terbinafine)]"
> 50 µM,,CO[C@H]1/C=C/O[C@@]2(C)Oc3c(C)c(O)c4c(c3C2=O)C(=O)/C(=C/NN2CCN(C)CC2)C(=C4O)NC(=O)/C(C)=C\C=C\C(C)[C@H](O)[C@@H](C)[C@@H](O)[C@@H](C)[C@@H](OC(C)=O)[C@@H]1C (some centres undefined) [AB00052086_02]
> 67 µM,> 67 µM,N#Cc1ccc(CN2CCc3cc([N+](=O)[O-])ccc32)c(F)c1 [AB01004372-01]
> 50 µM,3.43 µM,O=C(O)/C=C/c1ccc(Cn2ccnc2)cc1
> 50 µM,,CO[C@H]1/C=C/O[C@@]2(C)Oc3c(C)c(O)c4c(c3C2=O)C(=O)/C(=C/NN2CCN(C)CC2)C(=C4O)NC(=O)/C(C)=C\C=C\[C@H](C)[C@H](O)[C@@H](C)[C@@H](O)[C@@H](C)[C@H](OC(C)=O)[C@@H]1C [Rifampicin]
> 50 µM,0.14 µM,CCCc1nc(C)c2c(=O)[nH]c(-c3cc(S(=O)(=O)N4CCN(CC)CC4)ccc3OCC)nn12 [CHEBI:46295]
> 50 µM,,CC(C)C[C@H](NC(=O)[C@H](Cc1ccccc1)NC(=O)c1cnccn1)B(O)O
> 67 µM,21 µM,COc1cc(/C=C(/C#N)c2nc(C)cs2)cc2c1OCO2 [AB00984802-01]
> 50 µM,30.2 µM,CCN(CC)CCOc1ccc2c(c1)C(=O)c1cc(OCCN(CC)CC)ccc1-2 [Amixin IC]
> 50 µM,1.29 µM,CC(C)C[C@@H](NC(=O)[C@H](Cc1ccccc1)NC(=O)c1cnccn1)B(O)O [AB01275474-01]
> 50 µM,1.55 µM,O=C(CCCCCCC(=O)Nc1ccccc1)NO [Zolinza]
> 49 µM,> 49 µM,O=S(=O)(Nc1ccc(-c2cn3cccnc3n2)cc1)c1ccc2c(c1)OCCO2 [AB01003479-01]
> 50 µM,8.88 µM,"Nc1ccc2cc3ccc(N)cc3nc2c1 [acridine-3,6-diamine]"

Compound,EC50,IC50
O=C(O)c1ccccc1-c1c2cc(Br)c(=O)cc-2oc2[c]([Hg])c(O)c(Br)cc12 [AB00053570_02],> 50 µM,> 50 µM
CN1[C@@H]2CC[C@H]1CC(OC(=O)C(CO)c1ccccc1)C2 (some centres undefined) [AB00694549-11],> 50 µM,21.4 µM
C[n+]1c2cc(N)ccc2cc2ccc(N)cc21 [AB00053810_11],> 50 µM,5.71 µM
